Like-named read-outs stand apart in the source and are kept apart here.
Legend:
[1] = tested on: DosR regulon genes (dosR, hspX and tgs1); experiment: NO and vitamin C sensitivity assays (RT-PCR); type: cell-based, Mycobacterium tuberculosis; conditions: for induction of dosR / induction of hspX / induction of tgs1: 2 h
Mtb = experiment: microbe, parasite or virus in culture; type: cell-based; conditions: Mycobacterium tuberculosis; 6 days, optical density; unit given as M; read-out: growth inhibition EC50
[2] = tested on: CDC1551(hspX′:GFP) reporter; experiment: microbe, parasite or virus in culture; type: cell-based, Mycobacterium tuberculosis; conditions: Mycobacterium tuberculosis, 6 days of treatment
Mtb Erdman [3] = conditions: 1 μM and 5 μM INH, ten days post INH treatment
Mtb Erdman [4] = experiment: microbe, parasite or virus in culture; conditions: Mycobacterium tuberculosis, 240 h, read-out: viability, INH alone
[5] = read-out: EC50 of inhibition of CDC1551(hspX′:GFP) reporter (dosR-dependent GFP) fluorescence

## C[C@H]1[C@@H](O)O[C@@H]2O[C@@]3(C)CC[C@H]4[C@H](C)CC[C@@H]1[C@@]24OO3 [DHA, dihydroartemisinin, reference compound]
[1]; 80 μM pretreatment 24 h
  reduction of magnitude of induction of transcripts in response to DETA-NONOate vs DMSO treatment: ~2 fold

## CN(C)CCCN1C(=O)c2cccc3c(Br)ccc(c23)C1=O [HC104A, 6-bromo-2-[3-(dimethylamino)propyl]benzo[de]isoquinoline-1,3-dione]
Mtb
  EC50: > 80 µM
[2]; unit given as M, read-out: EC50 of inhibition of dosR-dependent GFP fluorescence
  EC50: 2.8 µM

## CCCS(=O)(=O)N1CCN(Cc2ccc3c(c2)c2ccccc2n3CC)CC1 [HC105A, 9-ethyl-3-[(4-propylsulfonylpiperazin-1-yl)methyl]carbazole; oxalic acid]
Mtb
  EC50: > 80 µM
[2]; [5]
  EC50: 12.7 µM

## O=C(Nc1ccno1)Nc1ccc(Cl)cc1Cl [HC106A, 1-(2,4-dichlorophenyl)-3-(1,2-oxazol-5-yl)urea]
Mtb
  EC50: > 80 µM
[2]; [5]
  EC50: 6.9 µM

## NNC(=O)c1ccncc1 [INH, isoniazid, reference compound]
Mtb Erdman [3]
  viability, INH alone: ~100%
Mtb Erdman [4]
  viability at 25 µM: ~75%

## [N]=O [NO, reference compound]
[1]; NO (50 μM DETA-NONOate)
  induction of dosR: 491 fold
  induction of hspX: 373 fold
  induction of tgs1: 47 fold

## O=C1O[C@H]([C@@H](O)CO)C(O)=C1O [vitamin C, reference compound]
[1]; 2 mM vitamin C
  induction of dosR: 4 fold
  induction of hspX: 14 fold
  induction of tgs1: 52 fold

From patent US11717508B2, “Compounds, compositions, and methods for inhibiting bacterial growth” (priority 2016, dated 2023)
